# Assay results from paper PMC10376254, “Phytochemical and Bioactivity Studies on Hedera helix L. (Ivy) Flower Pollen and Ivy Bee Pollen” (Antioxidants, 2023).
# Entries after “also recorded” stand apart in the source; their conditions may differ. Marks after values point to notes of the source that are not given here.
# What was measured:
# xanthine oxidase (XO) [1] = experiment: HPTLC-xanthine oxidase inhibitory activity (bioautography); type: biochemical; conditions: for HPTLC-XO zone detection (XO inhibitors as white/yellow zones on purple background): 8 µg on plate for compounds, samples 50 mg/mL, 2 and 5 µL, documented 0–120 min
# Description: HPTLC analyses was immersed into a derivatization chamber with a mixture of phosphate buffer solution (pH 7.6) containing EDTA (1 mM), NBT (1 mM) and XO (0.1 U/mL), and incubated at 37 °C for 30 min in the dark. After drying in the air, the HPTLC plate was dipped into a phosphate buffer solution containing xanthine (1.5 mM) and incubated at 37 °C for 30 min in the dark. After drying in the air, the HPTLC plate was documented at white light in RT mode immediately (0 min), as well as at 5, 10, 15, 20, 30, 45, 60, 90, and 120 min, subsequently.
# In HPTLC-XO inhibitory activity assay, the developed plate was dipped into a phosphate buffer solution containing xanthine and after incubation and drying was documented immediately (t = 0 min) and after 5, 10, 15, 20, 30, 45, 60, 90 and 120 min. Within this documentation interval, the plate was stored in the dark. The XO inhibitors were detected as white/yellow zones on a purple background (Figure 7).
# [2] = Superoxide radical scavenging (SOD) activity (xanthine/XO/NBT); type: biochemical; conditions: for SOD Activity IC50: enzymatic xanthine/XO/NBT, 560 nm, n = 3, ± SD, N.d. = Not detected
# Description: Half-maximal inhibitory concentration values (IC50) were calculated for superoxide radical scavenging and XO inhibitory activity. Inhibition values (%) were calculated based on absorbances (A) measured against blank solutions by using the following formula:Inhibition (%): (1 − (ASample − ASample Blank)/(AControl − AControl Blank)) × 100. (1)
# SOD activity was performed as described in Ref. [27]. […] After incubation at 37 °C for 20 min the reaction was terminated by hydrochloric acid (0.6 M, 80 µL) and absorption was measured at 560 nm against a blank solution containing all reagents except XO.
# xanthine oxidase (XO) [3] = target: T1, xanthine oxidase (XO) (Bos taurus, UniProt P80457); experiment: Xanthine oxidase inhibitory activity (spectrophotometric); type: biochemical; conditions: for XO inhibitory activity (in words): spectrophotometric assay, at the applied concentrations (0.01–1 mg/mL)
# T1 construct: purchased Sigma-Aldrich (Steinheim, Germany)
# Description: Half-maximal inhibitory concentration values (IC50) were calculated for superoxide radical scavenging and XO inhibitory activity. Inhibition values (%) were calculated based on absorbances (A) measured against blank solutions by using the following formula:Inhibition (%): (1 − (ASample − ASample Blank)/(AControl − AControl Blank)) × 100.
# Sodium phosphate buffer (50 mM, pH 7.5, 75 µL) was placed in the wells of a 96-well microplate; this was followed by the DSTSs in different concentrations (25 µL); followed by freshly prepared XO solution (0.2 U/mL in phosphate buffer solution, 25 µL); followed by water (25 µL). Incubation of the reaction mixture at 37 °C for 15 min was followed by the addition of a substrate solution (0.15 mM xanthine, 50 µL) into the mixture and incubation at 37 °C for 30 min until the reaction was terminated by the addition of hydrochloric acid (0.5 M, 50 µL). Finally, the absorbance was measured at 290 nm against a blank, containing all reagents, except the enzyme solution.
# [4] = CUPRAC assay (cupric reducing antioxidant capacity); conditions: trolox equivalents, n = 3, average ± SD
# Description: (§1) The antioxidant activities were expressed as mg of trolox equivalents (TE) per g of hydroalcoholic extract (TE/g hydroalcoholic extract).
# The CUPRAC method [32] was applied. Copper (II) sulfate pentahydrate (10 mM, 85 µL), neocuproine (7.5 mM, 85 µL) ammonium acetate buffer solution (85 µL, pH 7) and water (51 µL) were inserted in each well of a 96-well microplate. Then, either 43 µL of the DSTSs or trolox standard solutions (3.125–200 μg/mL) or water as a blank were added into each well. After incubation at room temperature for 30 min, the absorbance was measured at 450 nm.
# ABTS assay = conditions: trolox equivalents, n = 3, average ± SD
# Description: as §1
# ABTS assay [33] was slightly modified and then applied. Equal volumes (20 µL) of the DSTSs, trolox standard solutions (6.25–100 μg/mL) or methanol (as a blank) were placed in separate wells of a 96-well microplate plate, and ABTS reagent (280 µL) was added. The absorbance was measured at 734 nm, after incubating the well plate for 6 min at room temperature.
# [5] = DPPH• assay (spectrophotometric antioxidant activity); conditions: trolox equivalents, n = 3, average ± SD
# Description: The same range of concentration (1–2.5 mg/mL) of DSTSs was applied for DPPH, FRAP, CUPRAC and ABTS assays. […] The antioxidant activities were expressed as mg of trolox equivalents (TE) per g of hydroalcoholic extract (TE/g hydroalcoholic extract). […] Inhibition values (%) were calculated based on absorbances (A) measured against blank solutions by using the following formula:Inhibition (%): (1 − (ASample − ASample Blank)/(AControl − AControl Blank)) × 100.
# Equal volumes (20 μL) of the DSTSs, trolox standard solutions (3.125–100 μg/mL) and methanol (as a blank) were placed in separate wells of a 96-well microplate, which was followed by the addition of DPPH solution (0.1 mM, 280 μL) to each well. After incubation in the dark at room temperature for 30 min, the absorbance was measured at 530 nm [30].
# [6] = FRAP assay (ferric reducing antioxidant power); conditions: trolox equivalents, n = 3, average ± SD
# Description: The same range of concentration (1–2.5 mg/mL) of DSTSs was applied for DPPH, FRAP, CUPRAC and ABTS assays. […] The antioxidant activities were expressed as mg of trolox equivalents (TE) per g of hydroalcoholic extract (TE/g hydroalcoholic extract).
# FRAP solution was freshly prepared by mixing 1 volume of iron (III) chloride solution (2 × 10^−2 M), 1 volume of TPTZ solution (1 × 10^−2 M) and 10 volumes of sodium acetate buffer (pH 3.6) solution. FRAP solution (280 µL) and the DSTSs (20 µL) or trolox standard solutions (20 µL; 3.125–100 μg/mL) or water as a blank (20 µL) were added in separate wells of a 96-well microplate, and after 6 min the absorbance was measured at 593 nm [31].
# [7] = HPTLC-DPPH• effect-directed analysis; conditions: 0.4 µg on plate for compounds; STS 20 mg/mL, 2 and 5 µL
# Description: HPTLC analyses were dipped into DPPH solution (0.1%) for 3 s using a Chromatogram Immersion Device III (Camag). The plates were left to dry in the air in the dark and were documented under white light after 30 min. The compounds having antioxidant activity appeared as yellow bands on the purple background.
# The image of the HPTLC plate captured at white light illumination after HPTLC-DPPH analyses was for image analyses converted to a different format using WinCATS software (Camag) and then converted to videodensitograms in fluorescence mode using VideoScan TLC/HPTLC Evaluation Software (Version 1.02.00) (Camag).
# [8] = spectrophotometric, 290 nm, n = 3, ± SD, N.d. = Not detected
# T1 sequence (P80457 2-1332 limits assumed): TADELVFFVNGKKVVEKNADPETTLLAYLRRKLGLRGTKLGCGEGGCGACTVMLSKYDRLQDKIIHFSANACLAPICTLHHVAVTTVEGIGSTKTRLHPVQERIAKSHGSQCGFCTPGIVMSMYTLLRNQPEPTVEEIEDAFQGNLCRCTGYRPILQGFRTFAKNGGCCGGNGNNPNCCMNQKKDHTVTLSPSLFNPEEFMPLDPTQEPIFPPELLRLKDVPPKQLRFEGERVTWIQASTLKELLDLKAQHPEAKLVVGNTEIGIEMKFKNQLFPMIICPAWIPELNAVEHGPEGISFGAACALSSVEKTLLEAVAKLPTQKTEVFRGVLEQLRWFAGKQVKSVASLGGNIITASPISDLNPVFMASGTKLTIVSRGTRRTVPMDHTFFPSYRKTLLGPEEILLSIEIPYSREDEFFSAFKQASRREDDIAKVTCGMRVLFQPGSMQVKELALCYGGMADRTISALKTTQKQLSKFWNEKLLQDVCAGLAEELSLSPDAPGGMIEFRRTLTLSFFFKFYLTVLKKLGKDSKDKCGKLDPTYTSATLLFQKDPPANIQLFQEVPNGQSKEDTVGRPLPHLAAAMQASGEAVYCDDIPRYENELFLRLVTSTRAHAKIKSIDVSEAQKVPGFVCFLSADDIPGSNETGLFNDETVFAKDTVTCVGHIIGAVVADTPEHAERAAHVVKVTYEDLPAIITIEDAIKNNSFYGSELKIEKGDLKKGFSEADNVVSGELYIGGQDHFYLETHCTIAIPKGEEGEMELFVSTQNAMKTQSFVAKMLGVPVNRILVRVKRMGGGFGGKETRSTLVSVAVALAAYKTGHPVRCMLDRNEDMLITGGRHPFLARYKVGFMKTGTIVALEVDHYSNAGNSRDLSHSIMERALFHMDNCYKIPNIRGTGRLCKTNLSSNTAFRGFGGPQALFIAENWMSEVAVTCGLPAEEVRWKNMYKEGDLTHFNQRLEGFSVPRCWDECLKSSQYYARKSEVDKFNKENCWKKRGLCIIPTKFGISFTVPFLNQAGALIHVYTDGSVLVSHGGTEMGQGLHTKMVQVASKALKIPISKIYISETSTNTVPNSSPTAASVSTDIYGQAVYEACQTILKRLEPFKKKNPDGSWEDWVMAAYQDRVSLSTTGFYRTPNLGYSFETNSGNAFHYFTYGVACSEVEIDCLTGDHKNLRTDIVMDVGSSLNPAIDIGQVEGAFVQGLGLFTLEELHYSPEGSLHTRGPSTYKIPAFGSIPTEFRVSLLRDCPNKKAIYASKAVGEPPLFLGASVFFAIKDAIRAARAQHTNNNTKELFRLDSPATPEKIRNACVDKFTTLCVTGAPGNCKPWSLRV
SMILES,XO inhibitory activity (in words) (xanthine oxidase (XO) [3]),XO Inhibitory Activity IC50 (xanthine oxidase (XO) [3]; [8]),IC50 (xanthine oxidase (XO) [3]; [8]),HPTLC-XO zone detection (XO inhibitors as white/yellow zones on purple background) (xanthine oxidase (XO) [1]),SOD Activity IC50 [2],SOD Activity IC50 ([2]; listed as allopurinol),CUPRAC antioxidant activity [4],ABTS antioxidant activity (ABTS assay),DPPH antioxidant activity [5],time at which the XO inhibition zone appeared on the HPTLC plate (xanthine oxidase (XO) [1]; 8 µg on plate),FRAP antioxidant activity [6],SOD activity (in words) ([2]; spectrophotometric assay),HPTLC-DPPH intensity of yellow zone [7]
"Oc1ncnc2[nH]ncc12 [Allopurinol, allopurinol, reference compound]",–,–,–,"immediately as a white zone, which lasted for 120 min",3.03 ± 0.10 ^a µg/mL,3.0 µg/mL,–,–,–,–,–,–,–
O=c1c(O[C@@H]2O[C@H](CO)[C@H](O)[C@H](O)[C@H]2O[C@@H]2O[C@H](CO)[C@@H](O)[C@H](O)[C@H]2O)c(-c2ccc(O)c(O)c2)oc2cc(O)cc(O)c12 [quercetin 3-O-β-glucopyranosyl-(1→2)-β-galactopyranoside],low XO inhibitory activity,–,117 µM,appeared immediately as yellow zones and lasted for 120 min,5.09 ± 0.36 ^a µg/mL,–,560.53 ± 14.74 ^c mg TE/g,242.13 ± 5.88 ^c mg TE/g,400.21 ± 11.78 ^c mg TE/g,–,227.30 ± 2.65 ^c mg TE/g,–,–
"C[C@@H]1OC(Oc2c(-c3ccc(O)cc3)oc3cc(O)cc(O)c3c2=O)[C@H](O)[C@H](O)[C@H]1O (some centres unmarked) [Afzelin, kaempferol-3-O-rhamnopyranoside]",–,–,–,appeared immediately as yellow zones and lasted for 120 min,20.61 ± 1.30 ^b µg/mL,–,171.40 ± 8.24 ^e mg TE/g,104.71 ± 0.25 ^e mg TE/g,149.35 ± 4.28 ^d mg TE/g,–,58.54 ± 2.37 ^d mg TE/g,–,–

# More lines, main results first:
XO inhibitory activity (in words) (xanthine oxidase (XO) [3]),XO Inhibitory Activity IC50 (xanthine oxidase (XO) [3]; [8]),IC50 (xanthine oxidase (XO) [3]; [8]),SMILES,HPTLC-XO zone detection (XO inhibitors as white/yellow zones on purple background) (xanthine oxidase (XO) [1]),SOD Activity IC50 [2],SOD Activity IC50 ([2]; listed as allopurinol),CUPRAC antioxidant activity [4],ABTS antioxidant activity (ABTS assay),DPPH antioxidant activity [5],time at which the XO inhibition zone appeared on the HPTLC plate (xanthine oxidase (XO) [1]; 8 µg on plate),FRAP antioxidant activity [6],SOD activity (in words) ([2]; spectrophotometric assay),HPTLC-DPPH intensity of yellow zone [7]
no XO inhibitory activity,–,–,C[C@@H]1O[C@@H](Oc2c(-c3ccc(O)cc3)oc3cc(O)cc(O)c3c2=O)[C@H](OC(=O)/C=C/c2ccc(O)cc2)[C@H](OC(=O)/C=C/c2ccc(O)cc2)[C@H]1O [Platanoside],weakest XO inhibition activity; also recorded: weak yellow zone,–,–,213.68 ± 8.41 ^d mg TE/g,173.15 ± 0.86 ^d mg TE/g,143.11 ± 1.31 ^d mg TE/g,20 min,49.06 ± 0.91 ^de mg TE/g,no SOD activity,–
–,17.47 ± 2.23 ^c µg/mL,–,"O=C(/C=C/c1ccc(O)c(O)c1)O[C@@H]1CC(O)(C(=O)O)C[C@@H](OC(=O)/C=C/c2ccc(O)c(O)c2)C1O (some centres unmarked) [3,5-Dicaffeoylquinic acid, 3,5-dicaffeoylquinic acid, reference compound]",appeared immediately as yellow zones and lasted for 120 min,5.87 ± 0.32 ^a µg/mL,–,760.83 ± 12.84 ^b mg TE/g,701.64 ± 13.63 ^b mg TE/g,665.53 ± 1.96 ^b mg TE/g,–,542.36 ± 15.41 ^b mg TE/g,–,slightly lower intensity
–,–,35.8 µM,"O=C(/C=C/c1ccc(O)c(O)c1)O[C@@H]1C[C@](O)(C(=O)O)C[C@@H](O)[C@H]1O [Chlorogenic acid, chlorogenic acid, reference compound]",appeared immediately as yellow zones and lasted for 120 min,–,–,–,–,–,–,–,–,–
